US20070191431A1, “2-Amino-5-piperidinylimidazolone compounds and use thereof for beta-secretase modulation” (Wyeth, priority 2005, published 2007)

Tests used:
human BACE1 = human BACE1 (Homo sapiens, UniProt P56817); assay: BACE-1 fluorescent kinetic assay (Example 88); type: biochemical; conditions: 10 nM enzyme, 25 μM substrate WABC-6, Na-Acetate pH 4.5, room temperature; read-out: BACE1 (IC50 μM)
Protocol: Evaluation of BACE-1 Binding Affinity of Test Compounds
Fluorescent Kinetic Assay
Dilution and mixing steps: total reaction volume: 100 μL
100 μM substrate dilution in 1× PBS was prepared, and
Fluorescence Readings: Readings at Aex 320 nm and Aem 420 nm are taken every 40 sec for 30 min at room temperature and the linear slope for substrate cleavage rate (vi) determined.

Chain of human BACE1 (P56817 46-501): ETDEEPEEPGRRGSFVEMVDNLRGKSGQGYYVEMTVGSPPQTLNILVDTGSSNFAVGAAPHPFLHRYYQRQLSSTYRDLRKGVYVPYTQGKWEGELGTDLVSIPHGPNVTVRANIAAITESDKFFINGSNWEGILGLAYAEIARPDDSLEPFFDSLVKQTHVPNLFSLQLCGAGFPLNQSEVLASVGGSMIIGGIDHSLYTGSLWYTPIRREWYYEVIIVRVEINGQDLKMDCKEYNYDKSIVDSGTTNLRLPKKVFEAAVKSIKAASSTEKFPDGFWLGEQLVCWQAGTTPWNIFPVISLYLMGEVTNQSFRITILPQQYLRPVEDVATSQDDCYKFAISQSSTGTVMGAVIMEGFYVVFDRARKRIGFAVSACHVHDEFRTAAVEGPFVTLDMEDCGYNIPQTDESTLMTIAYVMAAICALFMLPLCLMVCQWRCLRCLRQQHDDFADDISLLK

IC50 (human BACE1) [µM]	melting point	Compound
> 3	120 to 123 °C	COCC(=O)Nc1cccc(C2(C3CCN(Cc4ccccc4)CC3)N=C(N)N(C)C2=O)c1 (stereo not drawn) [Example 59, N{3-[2-Amino-4-(1-benzylpiperidin-4-yl)-1-methyl-5-oxo-4,5-dihydro-1H-imidazol-4-yl]phenyl}-2-methoxyacetamide]
0.01 to 1	152 to 154 °C	CN1C(=O)C(c2cccc(-c3cccnc3F)c2)(C2CCN(C(=O)c3ccccc3)CC2)N=C1N (stereo not drawn) [Example 80, 2-amino-5-(1-benzoylpiperidin-4-yl)-5-[3-(2-fluoropyridin-3-yl)phenyl]-3-methyl-3,5-dihydro-4H-imidazol-4-one]
0.01 to 1	156 to 158 °C	CN1C(=O)C(c2cccc(-c3cncnc3)c2)(C2CCN(C(=O)c3ccccc3)CC2)N=C1N (stereo not drawn) [Example 81, 2-amino-5-(1-benzoylpiperidin-4-yl)-3-methy-5-(3-pyrimidin-5-ylphenyl)-3,5-dihydro-4H-imidazol-4-one]
0.01 to 1	150 to 153 °C	COc1cncc(-c2cccc(C3(C4CCN(C(=O)c5ccccc5)CC4)N=C(N)N(C)C3=O)c2)c1 (stereo not drawn) [Example 82, 2-amino-5-(1-benzoylpiperidin-4-yl)-5-[3-(5-methoxypyridin-3-yl)phenyl]-3-methyl-3,5-dihydro-4H-imidazol-4-one]
0.01 to 1	163 to 165 °C	COc1cccc(-c2cccc(C3(C4CCN(C(=O)c5ccccc5)CC4)N=C(N)N(C)C3=O)c2)c1 (stereo not drawn) [Example 83, 2-amino-5-(1-benzoylpiperidin-4-yl)-5-(3′-methoxybiphenyl-3-yl)-3-methyl-3,5-dihydro-4H-imidazol-4-one]
0.01 to 1	165 to 168 °C	CN1C(=O)C(c2cccc(-c3cccc(F)c3)c2)(C2CCN(C(=O)c3ccccc3)CC2)N=C1N (stereo not drawn) [Example 84, 2-amino-5-(1-benzoylpiperidin-4-yl)-5-(3′-fluorobiphenyl-3-yl)-3-methyl-3,5dihydro-4H-imidazol-4-one]
0.01 to 1	165 to 166 °C	CN1C(=O)C(c2cccc(-c3cccc(Cl)c3)c2)(C2CCN(C(=O)c3ccccc3)CC2)N=C1N (stereo not drawn) [Example 85, 2-amino-5-(1-benzoylpiperidin-4-yl)-5-(3′-chlorobiphenyl-3-yl)-3-methyl-3,5-dihydro-4H-imidazol-4-one]
0.01 to 1	> 150 °C (dec.)	CN1C(=O)C(c2cccc(-c3cc(F)ccc3F)c2)(C2CCN(C(=O)c3ccccc3)CC2)N=C1N (stereo not drawn) [Example 86, 2-amino-5-(1-benzoylpiperidin-4-y)-5-(2′,5′-difluorobiphenyl-3-yl)-3-methyl-3,5-dihydro-4H-imidazol-4-one]
0.01 to 1	> 150 °C (dec.)	CN1C(=O)C(c2cccc(-c3cc(F)cc(F)c3)c2)(C2CCN(C(=O)c3ccccc3)CC2)N=C1N (stereo not drawn) [Example 87, 2-amino-5-(1-benzoylpiperidin-4-yl)-5-(3′,5′-difluorobiphenyl-3-yl)-3-methyl-3,5-dihydro-4H-imidazol-4-one]
